Assay results as given in patent US10752900B2, “Oligonucleotides for modulating gene expression and uses thereof” (BIOGENERA S.P.A., priority 2012, dated 2020).

Assays:
[1] = system: MYCN gene; test: QT-PCR, MYCN mRNA in SKNBE2c cells; format: cell-based, human; details: Table 6
Procedure: For the purpose of assessing the ability of the oligonucleotides of the present invention to modulate the expression of the target genes, their ability to reduce the quantity of messenger RNA was analyzed using the Real-Time PCR technique. For this purpose, use was made of 24-well plates, which were seeded with 5.0×10^4 cells with 0.3 ml of OPTI-MEM (GIBCO BRL) medium, 4% FBS and 2 mM L-glutammine (experiments in triplicate) per well. The cells were incubated for 24 hours at 37° C., in an atmosphere containing 5% CO2 to permit adherence to the base of the wells. For each well, the oligonucleotides were analyzed at the following final concentrations: • the antisense oligonucleotides siRNA and siRNA gapmer (i.e. the oligonucleotides containing one or more monomers of chemically modified nucleic acids at the 3' or 5' end, while in the central portion they have monomers of nucleic acids that have not been modified or have been modified at the level of the phosphodiester bond as a phosphorothioate bond) were used at 200 nM; • the antisense oligonucleotides containing phosphorothioate DNA monomers, the RNA antigene oligonucleotides (agRNA) and the oligonucleotides containing DNA monomers and LNA monomers were used at 10 μM; • the morpholino oligonucleotides were used at a concentration of 1 μM, and • the PNA oligonucleotides were administered at a concentration of 1 μM. The cells were treated with the oligonucleotides, adding FBS up to 4% 6 hours after administration of the same. After 24 hours the total RNA was extracted from each well and purified using the RNeasy Mini Kit (QIAGEN). Assays were performed on 8 cell lines obtained from 5 different human tumours which are correlated with MYCN expression, i.e.: • as a neuroblastoma model use was made of the cell lines Kelly, IMR-32 (where the MYCN gene is amplified and superexpressed) and SKNBE2c and LAN1 (where the MYCN gene is amplified and superexpressed and the p53 gene is mutated); • as a rabdomiosarcoma model use was made of the cell line RH30, where the MYCN gene is amplified and superexpressed; • as a Wilms' tumour model use was made of the cell line WiT49, where the MYCN gene is amplified and superexpressed; • as a retinoblastoma model use was made of the cell line Y79, where the MYCN gene is amplified and superexpressed; and • as a model of small cell lung cancer use was made of the cell line H69 where the MYCN gene is amplified and superexpressed. As a control, use was made of the same cell lines as listed above treated with sterile water instead of oligonucleotides. Each RNA sample was quantified (in duplicate) using a NanoDrop ND-1000 spectrophotometer (NanoDrop Technologies). The first strand of cDNA was produced using the cDNA Synthesis Kit for RT-PCR (Roche). For the cDNA synthesis reaction a total of 1 μg of RNA was used. For the real-time PCR, 10 ng of cDNA in a final volume of 20 μl was used with SYBR Green Master Mix 2× (Applied Biosystems) (3 identical experiments were conducted in triplicate). Two housekeeping genes were used as positive controls: GAPDH and beta-actin (ACTB). The conditions of the QT-PCR reaction were: 10 min at 95° C., 20 sec at 95° C., and 30 sec at 60° C., for 50 cycles. The PNAs having SEQ ID NO: 1-12 were also tested on different cell lines which overexpress MYCN (Kelly, SKNBE2c, RH30, […] 1 and H69). The results are shown in Table 6 and confirm the selectivity and specificity of the inhibition effect of the PNAs on the product of protein translation of the MYCN gene.

[2] = system: H69; test: Cellular proliferation assay (ATP-Lite), H69 cells; format: cell-based, human; details: Table 6
Procedure: For the purpose of assessing the gene modulation ability of the oligonucleotides of the present invention, the effect of their administration on cell viability was determined.
For this purpose 5×10^3 cells per well were seeded into 96-well cell culture plates (experiments conducted in triplicate) with 100 μl of OPTI-MEM (GIBCO BRL) medium containing 4% FBS and 2 mM of L-glutammine.
The PNA oligonucleotides were administered at different concentrations (1 μM-2.5 μM-5 μM-10 μM) in order to observe a dose-effect relationship.
The viability of the treated cells was determined at 48, 72, 96 and 168 hours after treatment.
Cell viability was assessed by means of an ATP-Lite assay (Luminescence ATP Detection Assay System, PerkinElmer) and is reported as the ratio between the average signal of the treated wells compared to the average value of the wells of untreated control cells. The cells were processed following the instructions provided with the kit.
The assays were performed on the same cell lines used to determine the levels of the MYCN gene messenger and listed in the paragraph: Treatments with Oligonucleotides—QT-PCR.
The PNAs having SEQ ID NO: 1-12 were also tested on different cell lines which overexpress MYCN (Kelly, SKNBE2c, RH30, WiT49, WERI-Rb1 1 and H69). The results are shown in Table 6 and confirm the selectivity and specificity of the inhibition effect of the PNAs on the product of protein translation of the MYCN gene.
The ability of the tested oligonucleotides to inhibit the messenger of the gene of interest was measured and the proliferative capacity of the cells following administration of the oligonucleotides was also assessed.

SEQ ID NO: 1: PNA ATGCCGGGCATGATCT against MYCN; subject of patent EP 1618195, control sequence used for comparison (all peptide nucleic acid (PNA)) [reference compound]
SKNBE2c % mRNA [1]: 41%
H69 % cell prol. [2]: 77%

SEQ ID NO: 2: PNA antigene oligonucleotide GGGTGGATGCGGGGGG directed against MYCN (PNA backbone, chemistry not fully specified)
SKNBE2c % mRNA [1]: 75%
H69 % cell prol. [2]: 61%

SEQ ID NO: 3: PNA antigene oligonucleotide GATGCGGGGGGCTCCT directed against MYCN (PNA backbone, chemistry not fully specified)
SKNBE2c % mRNA [1]: 68%
H69 % cell prol. [2]: 63%

SEQ ID NO: 4: PNA antigene oligonucleotide GTCGGCGGGAGGTAAG directed against MYCN (PNA backbone, chemistry not fully specified)
SKNBE2c % mRNA [1]: 60%
H69 % cell prol. [2]: 66%

SEQ ID NO: 5: PNA antigene oligonucleotide GCTGGGTGGATGCGGG directed against MYCN (PNA backbone, chemistry not fully specified)
SKNBE2c % mRNA [1]: 59%
H69 % cell prol. [2]: 68%

SEQ ID NO: 6: PNA antigene oligonucleotide TGGACGCGCTGGGTGG directed against MYCN (PNA backbone, chemistry not fully specified)
SKNBE2c % mRNA [1]: 62%
H69 % cell prol. [2]: 69%

SEQ ID NO: 7: PNA antigene oligonucleotide CGCGCTGGGTGGATGC directed against MYCN (all peptide nucleic acid (PNA))
SKNBE2c % mRNA [1]: 60%
H69 % cell prol. [2]: 67%

SEQ ID NO: 8: PNA antigene oligonucleotide GTCTGGACGCGCTGGG directed against MYCN (all peptide nucleic acid (PNA))
SKNBE2c % mRNA [1]: 62%
H69 % cell prol. [2]: 66%

SEQ ID NO: 9: PNA antigene oligonucleotide CCCTGCAGTCGGCGGG directed against MYCN (all peptide nucleic acid (PNA))
SKNBE2c % mRNA [1]: 58%
H69 % cell prol. [2]: 70%

SEQ ID NO: 10: PNA antigene oligonucleotide CGGCCGCGGGCCGCCA directed against MYCN (PNA backbone, chemistry not fully specified)
SKNBE2c % mRNA [1]: 41%
H69 % cell prol. [2]: 79%

SEQ ID NO: 11: PNA antigene oligonucleotide GGGAACTGTGTTGGAG directed against MYCN (PNA backbone, chemistry not fully specified)
SKNBE2c % mRNA [1]: 40%
H69 % cell prol. [2]: 78%

SEQ ID NO: 12: PNA antigene oligonucleotide TGTCTGGACGCGCTGG directed against MYCN (all peptide nucleic acid (PNA))
SKNBE2c % mRNA [1]: 40%
H69 % cell prol. [2]: 78%
